Assay results: US5292751A, “5,7-dihydroxy-2-methyl-8-(4-(3-hydroxy-1-(1-propyl))pip eridinyl)-4H-1-benzopyran-4-one, its preparation and its use” (priority 1991, dated 1994)
Like-named read-outs stand apart in the source and are kept apart here.

Key:
[1] = assay type: in vivo; conditions: for Therapeutic index (LD50 ED50): LD50 over carrageenin ED50
Method: 1. Acute inflammation model:
Systemic anti-inflammatory action on carrageenin-induced paw oedema in rats.
Male Charles Foster rats (120-150 g) were fasted for 18 hours, with water ad libitum. The test compound suspended in Tween^R 80 and 0.5% C.M.C. was administered orally. The control group received Tween 80 and 0.5% C.M.C. 0.05 ml of 0.5% carrageenin suspension was injected subcutaneously into the plantar region of the left hind paw. Using a Maclab differential volume meter, the paw volume was determined before the carrageenin injection and 3 and 6 hours after the injection. The percentage decrease in paw volume was calculated by the following equation: [formula] The ED50 value was calculated from the dose/response curve. Six animals were used for each group.

in vivo [2] = conditions: po, rat
in vivo [3] = assay type: in vivo; conditions: for potentiation of the secondary arthritic response: p.o. per day
Method: 2. Adjuvant induced arthritis (developing) in Rats
Female Charles Foster rats weighing 150-180 g were sorted into groups (10 rats/group). Each animal received 10 μl of 1% suspension of mycobacterium tuberculli in paraffin oil, intradermally, at the base of the tail. Drug treatment was instituted on the day of the induction of arthritis and continued for 21 days. The body weight of each rat was noted prior to the adjuvant suspension injection and subsequently all throughout for 21 days. Volumes of both hind paws were recorded on the day of injection and subsequently from 7 days onwards till the end of the experiment.

[4] = rat, p.o., carrageenin paw oedema, from dose/response curve

Row | SMILES | ED50, mg/kg p.o. [1, 4] [mg/kg] | Therapeutic index (LD50 ED50) ([1]; rat, p.o.) | LD50 (in vivo [2]) [mg/kg] | inhibition of adjuvant arthritis (in vivo [3]; 0.1, 1 and 10 mg/kg, p.o., 21 days) | mortality (in vivo [3]; rat, in vivo, po, 10 mg/kg/day, 10 mg/kg, p.o./day, between 9th and 11th day of administration) [%] | ED50, mg/kg p.o. ([1]; po) [mg/kg] | potentiation of the secondary arthritic response (in vivo [3]; 3 mg/kg) [%] | potentiation of the secondary arthritic response (in vivo [3]; 9 mg/kg) [%] | symptoms of cytotoxicity (in vivo [3]; 18 mg/kg, p.o./day) | inhibition of adjuvant arthritis (in vivo [3]; 18 mg/kg, p.o./day, may be due to toxicity) | response in adjuvant arthritis (in vivo [3]; 3, 9, 18 and 27 mg/kg/day p.o., 21 days) | therapeutic range (in vivo [3]; p.o., daily dosing) | therapeutic index, comparison in words ([1]; compared with compounds B and C) | deaths or toxic side effects (in vivo [3]; 30 mg/kg, p.o./day, 21 days) | inhibition of adjuvant arthritis (in vivo [3]; 1.25, 2.5, 5 and 10 mg/kg/day, p.o., 21 days)
1 | CN1CCC(c2c(O)cc(O)c3c(=O)cc(-c4ccccc4)oc23)C(O)C1 (stereo not drawn) [Compound C] | 1.3 | 20.76 | 27 | No inhibition of adjuvant arthritis was seen at any of the doses tested | 50 |  |  |  |  |  |  |  |  |  | 
2 | Cc1cc(=O)c2c(O)cc(O)c(C3CCN(C)CC3O)c2o1 (stereo not drawn) [Compound B] |  |  |  |  |  | 9.0 | 58.6 | 64.9 | weight loss and severe diarrhoea | significant inhibition | biphasic response | narrow therapeutic range |  |  | 
3 | CCCN1CC[C@H](c2c(O)cc(O)c3c(=O)cc(C)oc23)[C@H](O)C1 (single isomer, unassigned) [Compound A] | 20.0 | 32.5 | 650 |  |  |  |  |  |  |  |  |  | favourable therapeutic index over compounds B and C | No deaths or toxic side effects were observed | dose-dependent and significant inhibition
